The source of these data is ChEMBL document CHEMBL2177020, “Structure-activity relationship studies of orally active antimalarial 3,5-substituted 2-aminopyridines” (J Med Chem, 2012).

Data set [1] can be described thus: Kinetic solubility of the compound in phosphate buffer at pH 6.5 by nephelometry analysis. The following applies: read-out: Kinetic_solubility. The class given is physicochemical.
Data set [2] in a line: physchem. Particulars: octanol/water, pH 7.4.
The nature of data set [3]: Kinetic solubility of the compound in 0.01M HCl at pH 2 by nephelometry analysis. The format is physicochemical. Particulars: read-out: Kinetic_solubility.
The test system of data set [4] is Plasma. The data set can be described thus: Average plasma concentration in Swiss mouse at 30 mg/kg, po after up to 24 hrs. Particulars: in vivo. The class given is ADME, organism-based. Also on record: dose 30 mg/kg, route oral.
A short description of data set [5]: Plasma concentration in Swiss mouse at 30 mg/kg, po after 0.5 hrs. The class given is ADME, organism-based. Also on record: dose 30 mg/kg, route oral.
Data set [6] concerns Plasma. In words: Average plasma concentration in Swiss mouse at 30 mg/kg, po after up to 8 hrs. The format is ADME, organism-based. The arrangement: dose 30 mg/kg, route oral. Particulars: in vivo.
The nature of data set [7]: Plasma concentration in Swiss mouse at 30 mg/kg, po after 24 hrs. Also on record: dose 30 mg/kg, route oral. The class given is ADME, organism-based.
Data set [8] is described as follows: Plasma concentration in Swiss mouse at 30 mg/kg, po after 8 hrs. The format is ADME, organism-based. The arrangement: dose 30 mg/kg, route oral.

Converted amounts (≈) assume the structure as drawn. Some results are limits rather than exact numbers.

Regarding `COc1ccc(-c2cc(-c3ccc(S(=O)(=O)N4CCOCC4)cc3)cnc2N)cn1`, the solubility kinetic in data set [1] is 6.3 µg/mL (≈ 14.8 µM); in data set [3], greater than 100 µg/mL. In addition, the log distribution coefficient (logD) (in general, lipophilicity at a set pH, counting ionised and neutral species) in data set [2] amounted to 2.7.
Turning to `COc1ccc(-c2cc(-c3ccc(S(=O)(=O)NC4CC4)cc3)cnc2N)cn1`, the figures for the solubility kinetic in data set [1] and in data set [3] were 6.3 µg/mL (≈ 15.9 µM) and greater than 100 µg/mL, respectively. For the same molecule, the logD in data set [2] was 2.7.
In the same order, the values of `COc1ccc(-c2cc(-c3ccc(S(=O)(=O)N4CCN(C)CC4)cc3)cnc2N)cn1` are 25 µg/mL (≈ 56.9 µM), greater than 100 µg/mL and 2.7.
In the case of `COc1ccc(-c2cc(-c3ccc(-n4cccn4)cc3)cnc2N)cn1`, the figures for the solubility kinetic in data set [1] and in data set [3] were 3.1 µg/mL (≈ 9.03 µM) and greater than 100 µg/mL, respectively. The logD in data set [2] is 3.1.
In the same order, the values of `CNC(=O)c1ccc(-c2cnc(N)c(-c3ccc(OC)nc3)c2)cc1` are 50 µg/mL (≈ 150 µM), 50 µg/mL (≈ 150 µM) and 1.8.
In the same order, the values of `COc1ccc(-c2cc(-c3ccc(C(=O)NCCN4CCCC4)cc3)cnc2N)cn1` are greater than 100 µg/mL, greater than 100 µg/mL and 2.5.
In the same order, the values of `COc1ccc(-c2cc(-c3ccc(C(=O)N4CCN(C)CC4)cc3)cnc2N)cn1` are greater than 100 µg/mL, greater than 100 µg/mL and 2.
`CN1CCN(C(=O)c2ccc(-c3cnc(N)c(-c4ccc(C(F)(F)F)nc4)c3)cc2)CC1`: the solubility kinetic in data set [1] and in data set [3] was greater than 100 µg/mL in each case. The same molecule displayed a logD in data set [2] of 2.9.
Regarding `COc1ccc(-c2cc(-c3ccc(C(=O)NCCN4CCOCC4)cc3)cnc2N)cn1`, the solubility kinetic in data set [1] and in data set [3] was greater than 100 µg/mL throughout. In data set [2], this molecule displayed a logD of 1.9.
For `COc1ccc(-c2cc(-c3ccc(C(N)=O)cc3)cnc2N)cn1`, the values for the Cave in data set [4] and in data set [6] were 2400 nM and 8200 nM, respectively. The solubility kinetic is 12.5 µg/mL (≈ 39 µM) in data set [1] and greater than 100 µg/mL in data set [3]. In data set [2], this molecule registered a log distribution coefficient (logD) of 1.7. The concentration at 0.5 h in data set [5] amounted to 10600 nM. In data set [7], this molecule had a concentration at 24 h of 10 nM. The molecule further came in with a concentration at 8 h in data set [8] of 1300 nM.
In the case of `Nc1ncc(-c2ccc(C(=O)N3CCNCC3)cc2)cc1-c1ccc(C(F)(F)F)cc1`, the solubility kinetic was 25 µg/mL (≈ 58.6 µM) in data set [1] and greater than 100 µg/mL in data set [3]. The molecule also showed a pH-dependent lipophilicity (logD) in data set [2] of 3.3.
In the same order, the values of `COc1ccc(-c2cc(-c3ccc(S(=O)(=O)N(C)C)cc3)cnc2N)cn1` are 6.3 µg/mL (≈ 16.4 µM), greater than 100 µg/mL and 2.8.
On to `COc1ccc(-c2cc(-c3ccc(C(=O)N4CCOCC4)cc3)cnc2N)cn1`, for which the solubility kinetic in data set [1] and in data set [3] was 25 µg/mL (≈ 64 µM) in each case. Also, in data set [2], the logD was 2. In addition, the concentration at 0.5 h in data set [5] turned out to be 10300 nM. Also, the Cave in data set [6] amounted to 7800 nM. The molecule further yielded a concentration at 8 h in data set [8] of 800 nM.
For the molecule `COc1ccc(-c2cc(-c3cccc(S(C)(=O)=O)c3)cnc2N)cn1`, the figures for the solubility kinetic in data set [1] and in data set [3] were 25 µg/mL (≈ 70.3 µM) and greater than 100 µg/mL, respectively. Also, the logD in data set [2] was 2.3.
Turning to `CNS(=O)(=O)c1ccc(-c2cnc(N)c(-c3ccc(OC)nc3)c2)cc1`, the solubility kinetic in data set [1] was 12.5 µg/mL (≈ 33.7 µM); in data set [3], greater than 100 µg/mL. In data set [2], this molecule yielded a logD of 2.2.
In the same order, the values of `COc1ccc(-c2cc(-c3ccc4cnn(C)c4c3)cnc2N)cn1` are 6.3 µg/mL (≈ 19 µM), greater than 100 µg/mL and 3.
In the same order, the values of `COc1ccc(-c2cc(-c3ccc(NS(C)(=O)=O)cc3)cnc2N)cn1` are 25 µg/mL (≈ 67.5 µM), greater than 100 µg/mL and 2.2.
Consider `COc1ccc(-c2cc(-c3ccc(C(=O)NCCCO)cc3)cnc2N)cn1`, for which the values for the solubility kinetic in data set [1] and in data set [3] were 12.5 µg/mL (≈ 33 µM) and greater than 100 µg/mL, respectively.
With `COc1ccc(-c2cc(-c3ccc(-n4cncn4)cc3)cnc2N)cn1`, the solubility kinetic is 6.3 µg/mL (≈ 18.3 µM) in data set [1] and greater than 100 µg/mL in data set [3]. Further, the logD in data set [2] amounted to 2.4.
As to `COc1ccc(-c2cc(-c3ccc4nccn4c3)cnc2N)cn1`, the solubility kinetic is 12.5 µg/mL (≈ 39.4 µM) in data set [1] and greater than 100 µg/mL in data set [3]. This molecule displayed a logD in data set [2] of 2.4.
In the same order, the values of `COc1ccc(-c2cc(-c3ccc(S(C)(=O)=O)cc3C(F)(F)F)cnc2N)cn1` are 12.5 µg/mL (≈ 29.5 µM), greater than 100 µg/mL and 2.7.
In the same order, the values of `COc1ccc(-c2cc(-c3ccc(S(N)(=O)=O)cc3)cnc2N)cn1` are 12.5 µg/mL (≈ 35.1 µM), greater than 100 µg/mL and 1.8.
In the same order, the values of `Nc1ncc(-c2ccc(C(=O)N3CCNCC3)cc2)cc1-c1ccc(C(F)(F)F)nc1` are 50 µg/mL (≈ 117 µM), greater than 100 µg/mL and 2.4.
In the case of `Nc1ncc(-c2ccc(C(=O)N3CCOCC3)cc2)cc1-c1ccc(C(F)(F)F)nc1`, the results for the solubility kinetic in data set [1] and in data set [3] were 25 µg/mL (≈ 58.4 µM) and greater than 100 µg/mL, respectively. In data set [2], this molecule displayed a logD of 2.4. Also, the concentration at 0.5 h in data set [5] was 4110 nM. The Cave in data set [6] turned out to be 3400 nM. The same molecule gave a concentration at 8 h in data set [8] of 840 nM.
Regarding `COc1ccc(-c2cc(-c3ccc(S(C)(=O)=O)c(F)c3)cnc2N)cn1`, the solubility kinetic in data set [1] was 6.3 µg/mL (≈ 16.9 µM); in data set [3], greater than 100 µg/mL. In addition, the log distribution coefficient (logD) in data set [2] is 2.5.
In the same order, the values of `CN1CCN(C(=O)c2ccc(-c3cnc(N)c(-c4ccc(C(F)(F)F)cc4)c3)cc2)CC1` are 25 µg/mL (≈ 56.8 µM), greater than 100 µg/mL and 3.9.
In the same order, the values of `COc1ccc(-c2cc(-c3ccc(-c4nnc(C)o4)cc3)cnc2N)cn1` are 12.5 µg/mL (≈ 34.8 µM), greater than 100 µg/mL and 2.6.
Turning to `COc1ccc(-c2cc(-c3ccc(C(=O)N(C)C)cc3)cnc2N)cn1`, the solubility kinetic in data set [1] and in data set [3] was greater than 100 µg/mL in each case. In data set [2], this molecule had a logD of 2.1. Further, the concentration at 0.5 h in data set [5] was found to be 30800 nM. In addition, in data set [6], the Cave was found to be 25100 nM. The concentration at 24 h in data set [7] is less than 1 nM. Also, the concentration at 8 h in data set [8] is 6400 nM.
Consider `COc1ccc(-c2cc(-c3ccc(C(=O)O)cc3)cnc2N)cn1`, for which the solubility kinetic in data set [1] was determined as 6.3 µg/mL (≈ 19.6 µM); in data set [3] it was 12.5 µg/mL (≈ 38.9 µM). In addition, the logD in data set [2] was found to be 0.8.
In the same order, the values of `COc1ccc(-c2cc(-c3ccc(OC(F)(F)F)cc3)cnc2N)cn1` are 1.6 µg/mL (≈ 4.43 µM), greater than 100 µg/mL and 4.3.
In the same order, the values of `COc1ccc(-c2cc(-c3ccc4ncccc4c3)cnc2N)cn1` are 6.3 µg/mL (≈ 19.2 µM), greater than 100 µg/mL and 2.9.
Consider `Nc1ncc(-c2ccc(C(=O)N3CCOCC3)cc2)cc1-c1ccc(C(F)(F)F)cc1`, for which the Cave in data set [4] amounted to 100 nM; in data set [6], 200 nM. Besides, the solubility kinetic in data set [1] was 6.3 µg/mL (≈ 14.7 µM); in data set [3] it was greater than 100 µg/mL. Further, in data set [2], the logD stood at 3.1. In data set [5], the concentration at 0.5 h was determined as 300 nM. In data set [7], this molecule yielded a concentration at 24 h of 1 nM. Also, in data set [8], the concentration at 8 h came out at 50 nM.
In the case of `COc1ccc(-c2cc(-c3ccc(C(F)(F)F)cc3)cnc2N)cn1`, the solubility kinetic in data set [1] is 1.6 µg/mL (≈ 4.63 µM); in data set [3] it was greater than 100 µg/mL. In data set [2], the logD was found to be 4.2.
In the same order, the values of `COc1ccc(-c2cnc(N)c(-c3ccc(OC)nc3)c2)cn1` are 25 µg/mL (≈ 81.1 µM), greater than 100 µg/mL and 2.8.
In the same order, the values of `COc1ccc(-c2cc(-c3cccc(C(N)=O)c3)cnc2N)cn1` are 12.5 µg/mL (≈ 39 µM), greater than 100 µg/mL and 1.7.
